Assay results taken from patent US9120764B2, “Chromene derivatives” (Consejo Superior de Investigaciones Cientificas, priority 2010, dated 2015).

Legend:
[1] = system: primary T lymphocytes; assay: Inhibition of the proliferation of T lymphocytes caused by stimulation of the TCR (CFSE, flow cytometry); format: cell-based, human; details: anti-CD3 10 μg/ml, 3 days, CFSE proliferation index; FIG. 3
Description: The effect of compounds ECRA20, ECRA24 and CBM-1 on the ability of the TCR to induce T lymphocyte proliferation was evaluated in primary T lymphocytes obtained from blood of healthy human donors. T lymphocytes were marked permanently with the fluorescent compound Carboxyfluorescein succinimidyl ester (CFSE) and incubated for 3 days at 37° C. on 96-well plates coated with antibody anti-CD3 (10 μg/ml) in the presence of the indicated concentrations of the compounds. Proliferation index was calculated from the intensity of fluorescence of CFSE measured by flow cytometry. As the cells divide they lose CFSE fluorescence because original fluorescence is divided between the daughter cells. This way each division is followed by a […] of CFSE per cell. So it is possible to calculate the number of divisions. Proliferation index is calculated by dividing the sum of the number of divisions by the calculated number of original parent cells, which have not divided any time. Black square indicates the rate of proliferation of lymphocytes stimulated and not treated with compounds and white square lymphocytes not stimulated with anti-CD3 (FIG. 3).

[2] = target: T1, interaction between TCR, through CD3ε, and the Nck SH3.1 domain (Homo sapiens, UniProt P16333); assay: In vitro "pull-down" assay of the TCR-Nck interaction; format: binding; details: Jurkat lysate, GST-SH3.1(Nck) on agarose beads, Western blot densitometry; FIG. 1
T1 construct: the amino-terminal human Nck1 SH3.1 domain; made in house; host or cells: bacterial cultures (GST-SH3.1); the TCR/CD3ε is endogenous, from a lysate of human Jurkat cells
Description: To do so, 10 million from human T cell line Jurkat were stimulated with 10 μg/ml of an anti-CD3 antibody for 5 minutes at 37° C. After the stimulation, the cells were lysed in isotonic buffer containing 0.3% Brij96 detergent. After removing the nucleus and other cellular debris by centrifugation, cell lysate aliquots were incubated with 10 μl of agarose beads covalently bound to glutathione and bound in turn to 5 μg of purified GST-SH3.1 (Nck) protein from bacterial cultures. The GST-SH3.1(Nck) protein corresponds to a fusion protein between glutathione S-transferase (GST) and the amino-terminal human Nck1 SH3.1 domain. Each of the aliquots of the cell lysate were incubated with GST-SH3.1 (Nck) in the presence of the indicated concentrations of inhibitors. After incubation, the agarose beads were collected by centrifugation and the quantity of TCR associated with GST-SH3.1 (Nck) was assessed by SDS-PAGE and Western blot with an antibody against TCR CD3ζ subunit. The quantification of the ratio between the quantity of TCR joined to GST-SH3.1 (Nck) in the presence of each of the concentrations of inhibitors, with respect to the amount that is attached in the absence of inhibitors, was evaluated by densitometry and is expressed under each rail as a percentage (FIG. 1).

[3] = system: primary T lymphocytes; assay: Inhibition of the production of cytokines by T lymphocytes caused by stimulation of the TCR; format: cell-based, human; details: anti-CD3 10 μg/ml plus anti-CD28 1 μg/ml; IFNγ at 24 hours, TNFα, IL6, IL17a at 48 hours; FIG. 4
Description: The effect of the compounds ECRA20, ECRA24, and CBM-1 on the ability of the TCR to induce the secretion of cytokines by T lymphocytes, was evaluated in primary T lymphocytes obtained from blood of healthy human donor. Lymphocytes were stimulated with 10 μg/ml of anti-CD3 plus 1 μg/ml of anti-CD28 in the presence of the indicated quantities of the compounds and the cell supernatants were collected at 24 hours (IFNγ) and 48 hours (TNFα, IL6, and IL17a) to measure the concentration of cytokines secreted in the medium (FIG. 4).

SMILES: Fc1ccc(C2=C(CN3CCCC3)COc3ccccc32)cc1 [ECRA20, 1-((4-(4-Fluorophenyl)-2H-cromen-3-il)methyl)pyrrolidine]
- proliferation of T lymphocytes in response to stimulation of the TCR [1]: suppress the proliferation of T lymphocytes
- effect on the interaction between TCR, through CD3ε, and the Nck SH3.1 domain [2]: inhibitory effect
- production of cytokines by T lymphocytes caused by stimulation of the TCR [3]: inhibit the production of cytokines

SMILES: COc1ccc2c(c1)C(c1ccc(F)cc1)=C(CN1CCCC1)CO2 [ECRA24, 1-((4-(4-Fluorophenyl)-6-methoxy-2H-chromen-3-yl)methyl)pyrrolidine]
- proliferation of T lymphocytes in response to stimulation of the TCR [1]: suppress the proliferation of T lymphocytes
- effect on the interaction between TCR, through CD3ε, and the Nck SH3.1 domain [2]: inhibitory effect
- production of cytokines by T lymphocytes caused by stimulation of the TCR [3]: inhibit the production of cytokines
